From patent publication US10799590B2, “Compositions containing a bitter tastant and at least one sophorolipid, and methods of reducing bitter taste attributed to a bitter tastant in an edible composition” (The United States of America, as Represented by the …, priority 2015, dated 2020)

Target: T1, sweet receptor (T1R2+T1R3) (Homo sapiens, UniProt Q7RTX0)
T1 construct: culture human fungiform taste papillae cells retaining their physiological and molecular characteristics; endogenous in cells; host or cells: cultured primary human fungiform taste papillae (HBO) cells
T1 sequence (Q7RTX0 21-852): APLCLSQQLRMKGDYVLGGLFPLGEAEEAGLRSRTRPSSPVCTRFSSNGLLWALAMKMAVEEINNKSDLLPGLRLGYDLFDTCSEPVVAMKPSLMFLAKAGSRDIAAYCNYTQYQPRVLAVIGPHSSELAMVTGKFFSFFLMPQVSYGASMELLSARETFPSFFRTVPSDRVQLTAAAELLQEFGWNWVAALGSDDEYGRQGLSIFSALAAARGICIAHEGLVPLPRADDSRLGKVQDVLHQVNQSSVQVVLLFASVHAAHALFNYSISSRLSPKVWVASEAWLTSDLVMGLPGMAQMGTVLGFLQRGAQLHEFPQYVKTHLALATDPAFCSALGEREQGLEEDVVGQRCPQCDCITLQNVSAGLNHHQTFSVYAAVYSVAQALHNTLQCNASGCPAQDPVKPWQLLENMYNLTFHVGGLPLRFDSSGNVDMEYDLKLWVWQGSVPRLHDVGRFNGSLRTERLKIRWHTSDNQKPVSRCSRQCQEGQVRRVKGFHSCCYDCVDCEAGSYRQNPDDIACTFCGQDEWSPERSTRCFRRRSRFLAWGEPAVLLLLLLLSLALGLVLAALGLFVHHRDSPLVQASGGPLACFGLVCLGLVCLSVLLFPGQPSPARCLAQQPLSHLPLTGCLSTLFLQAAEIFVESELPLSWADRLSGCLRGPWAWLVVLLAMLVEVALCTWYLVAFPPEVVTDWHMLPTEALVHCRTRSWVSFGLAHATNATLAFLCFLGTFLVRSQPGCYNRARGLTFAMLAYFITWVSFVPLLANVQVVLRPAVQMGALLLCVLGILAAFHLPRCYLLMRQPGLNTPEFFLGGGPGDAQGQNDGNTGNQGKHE
T1 sequence (Q8TE23 20-839 partner): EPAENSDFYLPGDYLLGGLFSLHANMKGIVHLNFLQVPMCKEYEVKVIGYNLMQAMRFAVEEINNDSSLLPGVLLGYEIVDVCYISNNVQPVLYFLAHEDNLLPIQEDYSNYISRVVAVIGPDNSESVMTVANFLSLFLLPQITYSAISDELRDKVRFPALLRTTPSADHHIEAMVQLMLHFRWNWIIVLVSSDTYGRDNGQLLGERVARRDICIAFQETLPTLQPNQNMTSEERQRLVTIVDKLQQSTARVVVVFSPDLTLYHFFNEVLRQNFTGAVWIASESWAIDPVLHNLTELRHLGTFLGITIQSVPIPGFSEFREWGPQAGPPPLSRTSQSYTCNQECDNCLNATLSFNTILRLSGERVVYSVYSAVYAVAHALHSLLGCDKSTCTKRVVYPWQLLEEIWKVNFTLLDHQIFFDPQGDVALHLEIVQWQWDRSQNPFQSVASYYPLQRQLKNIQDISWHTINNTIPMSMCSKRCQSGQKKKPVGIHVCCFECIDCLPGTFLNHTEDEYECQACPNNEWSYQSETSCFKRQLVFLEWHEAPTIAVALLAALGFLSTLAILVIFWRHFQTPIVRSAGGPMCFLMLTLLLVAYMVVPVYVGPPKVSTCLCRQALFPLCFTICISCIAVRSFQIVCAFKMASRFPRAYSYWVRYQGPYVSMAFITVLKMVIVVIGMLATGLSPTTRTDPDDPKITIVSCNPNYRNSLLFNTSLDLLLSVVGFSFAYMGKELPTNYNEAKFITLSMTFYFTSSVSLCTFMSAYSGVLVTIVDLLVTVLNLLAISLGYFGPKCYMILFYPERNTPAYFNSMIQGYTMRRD
Assay: Lactisole sensitivity of sophorolipid-induced calcium responses in cultured HBO cells
Type: cell-based
Conditions: lactisole = T1R3 blocker; C16-SL-responsive cells n=29 (FIG. 4)
Text: In vitro cell-based assay of sweet property. Establishment and maintenance of cultures of human fungiform taste papillae cells (HBO cells): We previously established the current proprietary protocol (Ozdener, H., et al., Chem. Senses, 31(3): 279-90 (2006); Ozdener, M. H., et al., Chem. Senses, 36(7): 601-12 (2011); Ozdener, H., et al., Isolation and culture of human fungiform taste papillae cells, J. Vis. Exp., 2012 May 17;(63):e3730) which allowed us to culture human fungiform taste papillae cells retaining their physiological and molecular characteristics for more than a year.
The human fungiform taste papillae cells were cultured according to protocols that we have published (Ozdener et al. 2006, Ozdener et al. 2011). […]
Calcium imaging: Cultured taste cells grown for 3-4 days glass coverslips which were loaded for 30-60 min with the calcium sensitive dye fura-2 by incubating the cells in Ringer solution (145 mM NaCl, 5 mM KCl, 1 mM MgCl2, 1 mM CaCl2, 1 mM Na-pyruvate, 20 mM Hepes-Na and Cellobiose 15 mM, pH 7.2 with osmolarity adjusted to 300-310 by 5M NaCl) supplemented with […] (Molecular Probes Inc., Eugene, Oreg.) and 10 mg/ml Pluronic® F127 (Molecular Probes Inc.). […] Stimuli were dissolved in Ringer and then pH and osmolarity readjusted if needed. […]

In the case of `OC[C@H]1O[C@@H](O[C@@H]2[C@@H](O)[C@H](O)[C@@H](CO)O[C@H]2O)[C@H](O)[C@@H](O)[C@@H]1O` [Sophorose, 2-O-β-D-glucopyranosyl-β-D glucopyranose], the “effect of lactisole on induced Ca responses, lactisole-sensitive HBO cells” value is reported as “lactisole sensitive”.
